Results reported in patent publication US9663465B2, “Acetylcholinesterase inhibitors and promnesiant serotonin 5-HT4 receptor agonists, their methods of preparation and the pharmaceutical compositions containing the same” (UNIVERSITE DE CAEN, priority 2013, dated 2017).
Where two headings read alike, the source gives them in different places.

Legend:
5-HT4 receptors = 5-HT4 receptors (Cavia porcellus (Guinea pig), UniProt O70528); test: Affinity as regards 5-HT4 receptors: competition against [3H]-GR113808 on striatal membranes; assay type: binding
Chain of 5-HT4 receptors (O70528 whole entry): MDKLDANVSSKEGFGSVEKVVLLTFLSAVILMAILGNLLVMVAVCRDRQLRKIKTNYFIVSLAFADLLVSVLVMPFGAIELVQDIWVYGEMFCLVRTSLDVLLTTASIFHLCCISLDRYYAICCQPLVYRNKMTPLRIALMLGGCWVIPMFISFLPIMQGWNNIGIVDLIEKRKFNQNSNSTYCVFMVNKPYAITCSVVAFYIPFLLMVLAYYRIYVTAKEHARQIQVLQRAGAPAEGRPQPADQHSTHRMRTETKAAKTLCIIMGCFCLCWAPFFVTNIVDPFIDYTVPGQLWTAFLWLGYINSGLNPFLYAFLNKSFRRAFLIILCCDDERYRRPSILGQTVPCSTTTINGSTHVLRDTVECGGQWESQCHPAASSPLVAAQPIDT

[1] = biological target: human acetylcholinesterase (Homo sapiens (Human), UniProt P22303); test: biochemical; assay type: biochemical; conditions: acetylcholinesterase from human erythrocytes
Chain of human acetylcholinesterase (P22303 32-574 with tags or gaps limits assumed): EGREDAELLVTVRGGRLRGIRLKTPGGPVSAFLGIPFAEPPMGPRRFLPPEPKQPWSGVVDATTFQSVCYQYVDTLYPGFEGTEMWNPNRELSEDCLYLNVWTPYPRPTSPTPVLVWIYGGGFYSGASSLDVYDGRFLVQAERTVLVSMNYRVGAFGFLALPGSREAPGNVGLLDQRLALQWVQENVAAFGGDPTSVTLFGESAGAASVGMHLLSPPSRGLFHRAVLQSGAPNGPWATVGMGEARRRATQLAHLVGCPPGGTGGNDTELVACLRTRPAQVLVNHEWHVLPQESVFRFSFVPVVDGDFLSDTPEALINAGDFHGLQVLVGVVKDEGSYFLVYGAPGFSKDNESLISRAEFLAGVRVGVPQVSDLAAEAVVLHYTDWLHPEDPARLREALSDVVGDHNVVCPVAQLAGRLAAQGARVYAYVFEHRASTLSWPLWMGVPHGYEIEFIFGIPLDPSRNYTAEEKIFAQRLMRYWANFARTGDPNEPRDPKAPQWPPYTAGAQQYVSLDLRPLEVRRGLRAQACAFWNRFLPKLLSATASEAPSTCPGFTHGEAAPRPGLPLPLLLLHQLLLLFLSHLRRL
Procedure: 100 μL of a 0.3 mM 5,5-dithiobis(2-nitrobenzoic acid) (DTNB) solution in a pH 7.4 phosphate buffer are introduced into a 96-well plate, followed by 50 μL of compound to be tested in solution in DMSO and 50 μL of enzyme solution. After 5 min of preincubation, the reaction is initiated by injecting 50 μL of 10 mM acetylthiocholine iodide solution. […] Donepezil is used as a reference product.

[2] = biological target: peripheral site of eeAChE (Electrophorus electricus (Electric eel) (Gymnotus electricus), UniProt O42275); assay type: binding
Chain of peripheral site of eeAChE (O42275 whole entry, looked up): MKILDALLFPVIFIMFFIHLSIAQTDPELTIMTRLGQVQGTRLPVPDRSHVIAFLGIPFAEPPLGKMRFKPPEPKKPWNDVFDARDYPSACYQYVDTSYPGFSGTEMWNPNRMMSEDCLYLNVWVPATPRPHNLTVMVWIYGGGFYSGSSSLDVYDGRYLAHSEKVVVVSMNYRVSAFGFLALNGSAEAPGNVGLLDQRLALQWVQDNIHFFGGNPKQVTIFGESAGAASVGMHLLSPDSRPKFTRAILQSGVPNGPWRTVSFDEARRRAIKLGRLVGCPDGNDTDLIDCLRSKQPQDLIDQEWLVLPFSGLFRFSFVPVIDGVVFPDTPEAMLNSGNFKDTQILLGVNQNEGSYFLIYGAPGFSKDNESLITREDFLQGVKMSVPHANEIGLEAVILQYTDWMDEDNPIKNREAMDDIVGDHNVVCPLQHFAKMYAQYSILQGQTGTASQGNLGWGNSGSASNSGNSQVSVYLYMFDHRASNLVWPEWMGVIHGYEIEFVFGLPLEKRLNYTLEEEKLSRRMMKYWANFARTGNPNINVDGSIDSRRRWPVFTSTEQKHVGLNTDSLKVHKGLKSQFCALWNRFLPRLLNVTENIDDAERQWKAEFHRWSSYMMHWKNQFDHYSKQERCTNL
Procedure: When propidium diiodide binds to the peripheral site of AChE, it produces an increase in fluorescence which can be used as proof of its binding to the enzyme. Fluorescence measurements are made in 200 μL of solution in 96-well plates using a Tecan Infinite M2000 microplate reader. […] 50 μL of micromolar solution of propidium diiodide are added before measuring fluorescence. […] Each test is repeated at least three times.

5-HT4 receptor = 5-HT4 receptor (Homo sapiens (Human), UniProt Q13639); test: Agonist nature as regards the 5-HT4 receptor: accumulation of intracellular cyclic AMP in stably transfected CHO cells; assay type: cell-based; conditions: percentage of agonist effect in relation to serotonin
Chain of 5-HT4 receptor (Q13639 whole entry): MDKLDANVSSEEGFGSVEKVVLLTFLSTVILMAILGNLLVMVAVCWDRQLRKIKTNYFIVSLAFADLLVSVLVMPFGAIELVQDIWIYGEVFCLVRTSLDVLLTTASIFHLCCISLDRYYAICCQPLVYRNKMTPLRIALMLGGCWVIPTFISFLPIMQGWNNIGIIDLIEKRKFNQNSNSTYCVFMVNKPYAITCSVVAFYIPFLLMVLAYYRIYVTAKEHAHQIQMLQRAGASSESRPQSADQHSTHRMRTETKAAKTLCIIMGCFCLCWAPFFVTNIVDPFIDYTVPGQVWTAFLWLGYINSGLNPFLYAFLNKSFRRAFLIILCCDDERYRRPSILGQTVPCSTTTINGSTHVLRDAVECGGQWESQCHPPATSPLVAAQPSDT

male NMRI mice = test: Object recognition test; assay type: in vivo; conditions: intraperitoneal, 30 minutes before the acquisition session
Procedure: The tests are performed using male NMRI mice of around 3 months old at the time of the tests.
The object recognition test is based on the spontaneous preference of rodents for novelty, without bringing food deprivation or electric shock into play.
The device comprises a square PVC enclosure (33×33×20 cm, illuminated at 10 lux in the center) with black surfaces. The test is performed in 2 phases: one habituation phase, allowing the animals to become habituated to the test environment (enclosure, room, experimenter), the other a memory performance assessment phase. A camera is positioned above the device and connected to a video-tracking system (ViewPoint®). During the behavioral tests, the experimenter is not present in the experimentation room but remains in an adjacent room that houses the video-tracking system.
After a habituation phase (Day 1, individual exposure for 5 minutes to the open-field with no objects), the memory performance assessment phase begins on the 2nd day and is made up of 2 sessions, one the presentation session and the other the test session. […] The exploration time of each object, A1 and A2 respectively, as well as the time required to achieve the exploration criterion are measured. […] The time required to achieve the exploration criterion as well as the exploration time of the new object are measured and the latter is compared to the chance level (15 s). […]

[3] = 10^-5 M solution of compound, eeAChE, propidium diiodide fluorescence

SMILES | % Propidium Displacement [2, 3] [%] | Agonistic effect % (5-HT4 receptor) [%] | other results
CCCCN1CCC(CCC(=O)c2cc(Br)c(N)cc2OC)CC1 [Compound 2, 1-(4-amino-5-bromo-2-methoxyphenyl)-3-[1-butyl-4-piperidyl]propan-1-one] |  |  | Ki (5-HT4 receptors): 8.9 nM; IC50 [1]: 445 nM
COc1cc(N)c(F)cc1C(=O)CCC1CCN(CC2CCCCC2)CC1 [Compound 5, 1-(4-amino-5-fluoro-2-methoxyphenyl)-3-[1-(cyclohexylmethyl)-4-piperidyl]propan-1-one] | 22 | 16 | 
COc1cc(N)c(Cl)cc1C(=O)CCC1CCN(CC2CCCC2)CC1 [Compound 8, 1-(4-amino-5-chloro-2-methoxyphenyl)-3-[1-(cyclopentylmethyl)-4-piperidyl]propan-1-one] | 20 | 12 | 
COc1cc(N)c(Cl)cc1C(=O)CCC1CCN(CC2CCCCC2)CC1 [Compound 9, 1-(4-amino-5-chloro-2-methoxyphenyl)-3-[1-(cyclohexylmethyl)-4-piperidyl]propan-1-one] | 22 | 22 | dose of maximum effect on object recognition performance (male NMRI mice): 0.3 mg/kg; object recognition performance compared to the control batch (male NMRI mice; 24 hours intersession): improvement in object recognition performance compared to the control batch
COc1cc(N)c(Cl)cc1C(=O)CCC1CCN(CC2CCCCCC2)CC1 [Compound 12, 1-(4-amino-5-chloro-2-methoxyphenyl)-3-[1-(cycloheptylmethyl)-4-piperidyl]propan-1-one] | 20 | 21 | 
COc1cc(N)c(Br)cc1C(=O)CCC1CCN(CC2CCCCC2)CC1 [Compound 14, 1-(4-amino-5-bromo-2-methoxyphenyl)-3-[1-(cyclohexylmethyl)-4-piperidyl]propan-1-one] |  |  | % Propidium Displacement [2]: 20%
COc1cc(N)c(Cl)cc1C(=O)CCC1CCN(CCC2CCCCC2)CC1 [Compound 16, 1-(4-amino-5-chloro-2-methoxyphenyl)-3-[1-(cyclohexylethyl)-4-piperidyl]propan-1-one] |  |  | % Propidium Displacement [2]: 21%
COc1cc(N)c(Cl)cc1C(=O)NCC1CCN(CC2CCCCC2)CC1 [Compound 17, 4-amino-5-chloro-[[1-(cyclohexylmethyl)-4-piperidyl]methyl]-2-methoxybenzamide] |  |  | Ki (5-HT4 receptors; 0.1 nM [3H]-GR113808, guinea pig striatal membranes, read-out: Ki): 2.3 nM; IC50 [1]: 3730 nM
Nc1cc(OCCF)c(C(=O)CCC2CCN(CC3CCCCC3)CC2)cc1Cl [Compound 23, 1-[4-amino-5-chloro-2-(2-fluoroéthoxy)phenyl]-3-[1-(cyclohexylmethyl)-4-piperidyl]propan-1-one] | 22 |  | 
COCCCN1CCC(NC(=O)c2cc(Cl)c(N)c3c2OCC3)CC1 [prucalopride, reference compound] |  | 100 | 
